Laboratory results from patent publication US20230085307A1, “PYRIDAZINONE COMPOUND AND HERBICIDE” (NISSAN CHEMICAL CORPORATION, priority 2019, published 2023).

Legend:
late watergrass = assay: Test Example 2: herbicidal activity, application during weed generation under submerged conditions (Table 17, symbol A); assay type: in vivo, late watergrass (Echinochloa oryzicola); settings: AAH 320 g/ha; application during weed generation, submerged conditions
Procedure, shortened: (§1)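 In this pot test, flooded alluvial soil (water depth 4 cm) holds all three species sown as a mixture. Once seedlings have one to two leaves, the compound's emulsion, thinned with water to the intended dose, is poured on the water; grading follows after three weeks on the earlier criteria.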

Japanese bulrush = assay: Test Example 2: herbicidal activity, application during weed generation under submerged conditions (Table 17, symbol B); assay type: in vivo, Japanese bulrush (Schoenoplectus juncoides); settings: AAH 320 g/ha; application during weed generation, submerged conditions
Procedure, shortened: as §1

oval-leafed pondweed = assay: Test Example 2: herbicidal activity, application during weed generation under submerged conditions (Table 17, symbol C); assay type: in vivo, oval-leafed pondweed (Monochoria vaginalis); settings: AAH 320 g/ha; application during weed generation, submerged conditions
Procedure, shortened: as §1

barnyard grass [1] = assay: Test Example 3: herbicidal effect by foliage application, Wagner pot (Table 18, symbol H); assay type: in vivo, barnyard grass (Echinochloa crus-galli); settings: amount of applied herbicide 320 g/ha
Procedure, shortened: (§2)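 Plants were sown in alluvial soil held under 0.1–0.5 cm standing water and grown 14 days in a greenhouse at 25–30 °C. An emulsifiable formulation, water-diluted to the set dose, was then sprayed onto the foliage, and effects were scored three weeks later using previously defined criteria.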

Chinese sprangletop = assay: Test Example 3: herbicidal effect by foliage application, Wagner pot (Table 18, symbol D); assay type: in vivo, chinese sprangletop (Leptochloa chinensis); settings: amount of applied herbicide 320 g/ha
Procedure, shortened: as §2

rice flat sedge = assay: Test Example 3: herbicidal effect by foliage application, Wagner pot (Table 18, symbol E); assay type: in vivo, rice flat sedge (Cyperus iria); settings: amount of applied herbicide 320 g/ha
Procedure, shortened: as §2

southern crabgrass = assay: Test Example 5: herbicidal effect by foliage application, plastic box (Table 20, symbol F); assay type: in vivo, southern crabgrass (Digitaria ciliaris); settings: foliage application, 320 g/ha, evaluated three weeks after application
Procedure, shortened: (§3)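 Plants were sown into sterilized diluvial soil under about 1.5 cm cover and kept in a greenhouse at 25° C. to 30° C. Fourteen days on, foliage received an even spray of the diluted emulsion. Herbicidal or crop effect was judged three weeks afterwards.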

green foxtail = assay: Test Example 5: herbicidal effect by foliage application, plastic box (Table 20, symbol G); assay type: in vivo, green foxtail (Setaria viridis); settings: foliage application, 320 g/ha, evaluated three weeks after application
Procedure, shortened: as §3

barnyard grass [2] = assay: Test Example 5: herbicidal effect by foliage application, plastic box (Table 20, symbol H); assay type: in vivo, barnyard grass (Echinochloa crus-galli); settings: foliage application, 320 g/ha, evaluated three weeks after application
Procedure, shortened: as §3

wild oat = assay: Test Example 5: herbicidal effect by foliage application, plastic box (Table 20, symbol I); assay type: in vivo, wild oat (Avena fatua); settings: foliage application, 320 g/ha, evaluated three weeks after application
Procedure, shortened: as §3

blackgrass = assay: Test Example 5: herbicidal effect by foliage application, plastic box (Table 20, symbol J); assay type: in vivo, blackgrass (Alopecurus myosuroides); settings: foliage application, 320 g/ha, evaluated three weeks after application
Procedure, shortened: as §3

Italian ryegrass = assay: Test Example 5: herbicidal effect by foliage application, plastic box (Table 20, symbol K); assay type: in vivo, Italian ryegrass (Lolium multiflorum); settings: foliage application, 320 g/ha, evaluated three weeks after application
Procedure, shortened: as §3

windgrass = assay: Test Example 5: herbicidal effect by foliage application, plastic box (Table 20, symbol L); assay type: in vivo, windgrass (Apera spica-venti); settings: foliage application, 320 g/ha, evaluated three weeks after application
Procedure, shortened: as §3

velvetleaf = assay: Test Example 5: herbicidal effect by foliage application, plastic box (Table 20, symbol M); assay type: in vivo, velvetleaf (Abutilon theophrasti); settings: foliage application, 320 g/ha, evaluated three weeks after application
Procedure, shortened: as §3

redroot pigweed = assay: Test Example 5: herbicidal effect by foliage application, plastic box (Table 20, symbol N); assay type: in vivo, redroot pigweed (Amaranthus retroflexus); settings: foliage application, 320 g/ha, evaluated three weeks after application
Procedure, shortened: as §3

lambsquarters = assay: Test Example 5: herbicidal effect by foliage application, plastic box (Table 20, symbol O); assay type: in vivo, lambsquarters (Chenopodium album); settings: foliage application, 320 g/ha, evaluated three weeks after application
Procedure, shortened: as §3

chickweed = assay: Test Example 5: herbicidal effect by foliage application, plastic box (Table 20, symbol P); assay type: in vivo, common chickweed (Stellaria media); settings: foliage application, 320 g/ha, evaluated three weeks after application
Procedure, shortened: as §3

false cleavers = assay: Test Example 5: herbicidal effect by foliage application, plastic box (Table 20, symbol Q); assay type: in vivo, false cleavers (Galium spurium); settings: foliage application, 320 g/ha, evaluated three weeks after application
Procedure, shortened: as §3

persian speedwell = assay: Test Example 5: herbicidal effect by foliage application, plastic box (Table 20, symbol R); assay type: in vivo, Persian speedwell (Veronica persica); settings: foliage application, 320 g/ha, evaluated three weeks after application
Procedure, shortened: as §3

How did the “herbicidal effect rating, A: late watergrass” value (late watergrass) turn out when CCCC(=O)Oc1c(C)nn(C)c(=O)c1-c1c(-c2c(OC)cccc2OC)sc2ccc(Cl)cc12 [2-122] was run?
Its value is 0 (Herbicidal rate of 5% or less (almost no effect)).

And the “herbicidal effect rating, B: Japanese bulrush” value (Japanese bulrush)?
The value was 0 (Herbicidal rate of 5% or less (almost no effect)).

What about the “herbicidal effect rating, C: oval-leafed pondweed” value (oval-leafed pondweed) of the same compound?
Its value is 2 (Herbicidal rate of 20% or more and less than 40%).

What about the “herbicidal effect on H: barnyard grass” value (barnyard grass [1]) of the same compound?
The value was 2 (Herbicidal rate of 20% or more and less than 40%).

What about the “herbicidal effect on D: Chinese sprangletop” value (Chinese sprangletop) of the same compound?
The value was 0 (Herbicidal rate of 5% or less (almost no effect)).

What about the “herbicidal effect on E: rice flat sedge” value (rice flat sedge) of the same compound?
Its value is 0 (Herbicidal rate of 5% or less (almost no effect)).

And the “herbicidal effect on F: southern crabgrass” value (southern crabgrass)?
Its value is 0 (Herbicidal rate of 5% or less (almost no effect)).

And the “herbicidal effect on G: green foxtail” value (green foxtail)?
The value was 0 (Herbicidal rate of 5% or less (almost no effect)).

And the “herbicidal effect on H: barnyard grass” value (barnyard grass [2])?
Its value is 0 (Herbicidal rate of 5% or less (almost no effect)).

What about the “herbicidal effect on I: wild oat” value (wild oat) of the same compound?
The value was 0 (Herbicidal rate of 5% or less (almost no effect)).

And the “herbicidal effect on J: blackgrass” value (blackgrass)?
Its value is 0 (Herbicidal rate of 5% or less (almost no effect)).

What about the “herbicidal effect on K: Italian ryegrass” value (Italian ryegrass) of the same compound?
The value was 0 (Herbicidal rate of 5% or less (almost no effect)).

What about the “herbicidal effect on L: windgrass” value (windgrass) of the same compound?
Its value is 0 (Herbicidal rate of 5% or less (almost no effect)).

And the “herbicidal effect on M: velvetleaf” value (velvetleaf)?
Its value is 0 (Herbicidal rate of 5% or less (almost no effect)).

What about the “herbicidal effect on N: redroot pigweed” value (redroot pigweed) of the same compound?
The value was 0 (Herbicidal rate of 5% or less (almost no effect)).

What about the “herbicidal effect on O: lambsquarters” value (lambsquarters) of the same compound?
Its value is 0 (Herbicidal rate of 5% or less (almost no effect)).

And the “herbicidal effect on P: chickweed” value (chickweed)?
The value was 3 (Herbicidal rate of 40% or more and less than 70%).

What about the “herbicidal effect on Q: false cleavers” value (false cleavers) of the same compound?
Its value is 0 (Herbicidal rate of 5% or less (almost no effect)).

And the “herbicidal effect on R: persian speedwell” value (persian speedwell)?
Its value is 1 (Herbicidal rate of 5% or more and less than 20%).
